Measured values from US11919888B2, “Neprilysin inhibitors” (THERAVANCE BIOPHARMA R&D IP, LLC, priority 2012, dated 2024).

These molecules were tested against T1, human NEP (Homo sapiens, UniProt P08473) (assay: In vitro enzyme inhibition assay at human NEP (fluorogenic peptide substrate)). Conditions: recombinant human NEP; 10 μM fluorogenic substrate Mca-D-Arg-Arg-Leu-Dap-(Dnp)-OH; 37° C.; 30 minute preincubation; read-out: pKi value at human NEP (converted).
T1 construct: purchased R&D Systems, Minneapolis, MN 1182-ZN
T1 sequence (P08473 52-750 limits assumed): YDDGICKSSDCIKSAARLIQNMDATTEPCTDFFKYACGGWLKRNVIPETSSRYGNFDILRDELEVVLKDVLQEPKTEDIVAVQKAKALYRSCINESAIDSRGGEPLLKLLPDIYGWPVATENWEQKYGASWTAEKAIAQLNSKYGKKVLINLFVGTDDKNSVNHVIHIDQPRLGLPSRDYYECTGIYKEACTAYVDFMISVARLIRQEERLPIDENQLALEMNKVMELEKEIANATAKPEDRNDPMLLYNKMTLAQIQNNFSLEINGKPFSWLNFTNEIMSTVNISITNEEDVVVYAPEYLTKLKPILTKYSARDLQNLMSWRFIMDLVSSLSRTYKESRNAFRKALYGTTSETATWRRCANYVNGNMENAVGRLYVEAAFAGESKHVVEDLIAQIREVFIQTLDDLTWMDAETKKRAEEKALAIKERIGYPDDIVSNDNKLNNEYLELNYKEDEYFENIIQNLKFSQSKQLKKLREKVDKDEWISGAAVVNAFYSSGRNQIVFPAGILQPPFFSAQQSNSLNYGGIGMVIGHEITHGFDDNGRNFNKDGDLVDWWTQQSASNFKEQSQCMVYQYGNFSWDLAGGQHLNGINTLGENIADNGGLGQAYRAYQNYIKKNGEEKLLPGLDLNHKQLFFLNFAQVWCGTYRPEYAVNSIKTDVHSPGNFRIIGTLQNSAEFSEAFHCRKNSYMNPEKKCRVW
Format: biochemical
Protocol: In Vitro Assays for the Quantitation of Inhibitor Potencies (IC50) at Human and Rat NEP, and Human ACE
The inhibitory activities of compounds at human and rat neprilysin (EC 3.4.24.11; NEP) and human angiotensin converting enzyme (ACE) were determined using in vitro assays as described below.
Recombinant human NEP and recombinant human ACE were obtained commercially (R&D Systems, Minneapolis, MN, catalog numbers 1182-ZN and 929-ZN, respectively). The fluorogenic peptide substrate Mca-D-Arg-Arg-Leu-Dap-(Dnp)-OH (Medeiros et al. (1997) Braz. J. Med. Biol. Res. 30:1157-62; Anaspec, San Jose, CA) and Abz-Phe-Arg-Lys(Dnp)-Pro-OH (Araujo et al. (2000) Biochemistry 39:8519-8525; Bachem, Torrance, CA) were used in the NEP and ACE assays respectively.
The assays were performed in 384-well white opaque plates at 37° C. using the fluorogenic peptide substrates at a concentration of 10 μM in Assay Buffer (NEP: 50 mM HEPES, pH 7.5, 100 mM NaCl, 0.01% polyethylene glycol sorbitan monolaurate (Tween-20), 10 μM ZnSO4; ACE: 50 mM HEPES, pH 7.5, 100 mM NaCl, 0.01% Tween-20, 1 μM ZnSO4).
Test compounds were assayed over the range of concentrations from 10 μM to 20 pM. Test compounds were added to the enzymes and incubated for 30 minute at 37° C. prior to initiating the reaction by the addition of substrate. Reactions were terminated after 20 minutes of incubation at 37° C. by the addition of glacial acetic acid to a final concentration of 3.6% (v/v).
Plates were read on a fluorometer with excitation and emission wavelengths set to 320 nm and 405 nm, respectively. Inhibition constants were obtained by nonlinear regression of the data using the equation (GraphPad Software, Inc., San Diego, CA): ν=ν0/[1+(I/K′)] where ν is the reaction rate, ν0 is the uninhibited reaction rate, I is the inhibitor concentration and K′ is the apparent inhibition constant.

**Q.** For `C[C@@](CO)(C[C@@H](Cc1ccc(-c2ccccc2)cc1)NC(=O)c1cnn[nH]1)C(=O)O` [(2S,4R)-5-biphenyl-4-yl-2-hydroxymethyl-2-methyl-4-[(3H-[1,2,3]triazole-4-carbonyl)amino]-pentanoic acid, reference compound], which Ki is on record?
**A.** Its Ki is no more than 1 nM.

**Q.** With `CC(=O)OC[C@](C)(C[C@@H](Cc1ccc(-c2ccccc2)cc1)NC(=O)c1cnn[nH]1)C(=O)O` [Example 1D, (2S,4R)-2-Acetoxymethyl-5-biphenyl-4-yl-2-methyl-4-[(3H-[1,2,3]triazole-4-carbonyl)amino]pentanoic Acid] as the molecule, how does the Ki read?
**A.** The Ki was no more than 1 nM.

**Q.** How did the Ki turn out when `CC(C)C(=O)OC[C@](C)(C[C@@H](Cc1ccc(-c2ccccc2)cc1)NC(=O)c1cnn[nH]1)C(=O)O` [Example 1E, (2S,4R)-5-Biphenyl-4-yl-2-isobutyryloxymethyl-2-methyl-4-[(3H-[1,2,3]triazole-4-carbonyl)amino]pentanoic Acid] was run?
**A.** The Ki was no more than 1 nM.

**Q.** For `CC(C)CC(=O)OC[C@](C)(C[C@@H](Cc1ccc(-c2ccccc2)cc1)NC(=O)c1cnn[nH]1)C(=O)O` [Example 1F, (2S,4R)-5-Biphenyl-4-yl-2-methyl-2-(3-methylbutyryloxymethyl)-4-[(3H-[1,2,3]triazole-4-carbonyl)amino]pentanoic Acid], which Ki is on record?
**A.** The Ki was no more than 1 nM.

**Q.** How did the Ki turn out when `CCOC[C@](C)(C[C@@H](Cc1ccc(-c2ccccc2)cc1)NC(=O)c1c[nH]nn1)C(=O)O` [Example 1I, (2S,4R)-5-Biphenyl-4-yl-2-ethoxymethyl-2-methyl-4-[(1H-[1,2,3]triazole-4-carbonyl)amino]pentanoic Acid] was run?
**A.** The Ki was 1 to 3.16 nM.

**Q.** For `COC[C@](C)(C[C@@H](Cc1ccc(-c2ccccc2)cc1)NC(=O)c1c[nH]nn1)C(=O)O` [Example 1J, (2S,4R)-5-Biphenyl-4-yl-2-methoxymethyl-2-methyl-4-[(1H-[1,2,3]triazole-4-carbonyl)amino]pentanoic Acid], which Ki is on record?
**A.** The Ki was 1 to 3.16 nM.

**Q.** `COc1ccccc1-c1ccc(C[C@H](C[C@@](C)(CO)C(=O)O)NC(=O)c2c[nH]nn2)cc1` [Example 2A, (2S,4R)-2-Hydroxymethyl-5-(2′-methoxybiphenyl-4-yl)-2-methyl-4-[(1H-[1,2,3]triazole-4-carbonyl)amino]pentanoic Acid] was tested. Which Ki did it give?
**A.** The Ki was 1 to 3.16 nM.

**Q.** `C[C@@](CO)(C[C@@H](Cc1ccc(-c2ccccc2Cl)cc1)NC(=O)c1c[nH]nn1)C(=O)O` [Example 2B, (2S,4R)-5-(2′-Chlorobiphenyl-4-yl)-2-hydroxymethyl-2-methyl-4-[(1H-[1,2,3]triazole-4-carbonyl)amino]pentanoic Acid] was tested. Which Ki did it give?
**A.** Its Ki is no more than 1 nM.

**Q.** `Cc1ccccc1-c1ccc(C[C@H](C[C@@](C)(CO)C(=O)O)NC(=O)c2c[nH]nn2)cc1` [Example 2C, (2S,4R)-2-Hydroxymethyl-2-methyl-5-(2′-methylbiphenyl-4-yl)-4-[(1H-[1,2,3]triazole-4-carbonyl)amino]pentanoic Acid] was tested. Which Ki did it give?
**A.** The Ki was no more than 1 nM.

**Q.** With `C[C@@](CO)(C[C@@H](Cc1ccc(-c2cccc(Cl)c2)cc1)NC(=O)c1c[nH]nn1)C(=O)O` [Example 2D, (2S,4R)-5-(3′-Chlorobiphenyl-4-yl)-2-hydroxymethyl-2-methyl-4-[(1H-[1,2,3]triazole-4-carbonyl)amino]pentanoic Acid] as the molecule, how does the Ki read?
**A.** The Ki was no more than 1 nM.

**Q.** How did the Ki turn out when `C[C@@](CO)(C[C@@H](Cc1ccc(-c2cc(Cl)ccc2F)cc1)NC(=O)c1c[nH]nn1)C(=O)O` [Example 2E, (2S,4R)-5-(5′-Chloro-2′-fluorobiphenyl-4-yl)-2-hydroxymethyl-2-methyl-4-[(1H-[1,2,3]triazole-4-carbonyl)amino]pentanoic Acid] was run?
**A.** Its Ki is 1 to 3.16 nM.

**Q.** For `C[C@@](CO)(C[C@@H](Cc1ccc(-c2cc(Cl)ccc2Cl)cc1)NC(=O)c1c[nH]nn1)C(=O)O` [Example 2F, (2S,4R)-5-(2′,5′-Dichlorobiphenyl-4-yl)-2-hydroxymethyl-2-methyl-4-[(1H-[1,2,3]triazole-4-carbonyl)amino]pentanoic Acid], which Ki is on record?
**A.** Its Ki is no more than 1 nM.

**Q.** `Cc1ccc(Cl)cc1-c1ccc(C[C@H](C[C@@](C)(CO)C(=O)O)NC(=O)c2c[nH]nn2)cc1` [Example 2G, (2S,4R)-5-(5′-Chloro-2′-methylbiphenyl-4-yl)-2-hydroxymethyl-2-methyl-4-[(1H-[1,2,3]triazole-4-carbonyl)amino]pentanoic Acid] was tested. Which Ki did it give?
**A.** Its Ki is no more than 1 nM.

**Q.** For `C[C@@](CO)(C[C@@H](Cc1ccc(-c2cccc(C#N)c2)cc1)NC(=O)c1c[nH]nn1)C(=O)O` [Example 2H, (2S,4R)-5-(3′-Cyanobiphenyl-4-yl)-2-hydroxymethyl-2-methyl-4-[(1H-[1,2,3]triazole-4-carbonyl)amino]pentanoic Acid], which Ki is on record?
**A.** The Ki was 3.16 to 10 nM.

**Q.** Which Ki does the source give for `COC[C@](C)(C[C@@H](Cc1ccc(-c2cccc(Cl)c2)cc1)NC(=O)c1c[nH]nn1)C(=O)O` [Example 2J, (2S,4R)-5-(3′-Chlorobiphenyl-4-yl)-2-methoxymethyl-2-methyl-4-[(1H-[1,2,3]triazole-4-carbonyl)amino]pentanoic Acid] here?
**A.** Its Ki is 1 to 3.16 nM.

**Q.** Which Ki does the source give for `CCOC[C@](C)(C[C@@H](Cc1ccc(-c2cccc(Cl)c2)cc1)NC(=O)c1cnn[nH]1)C(=O)O` [Example 2K, (2S,4R)-5-(3′-Chlorobiphenyl-4-yl)-2-ethoxymethyl-2-methyl-4-[(3H-[1,2,3]triazole-4-carbonyl)amino]pentanoic Acid] here?
**A.** Its Ki is no more than 1 nM.

**Q.** For `C[C@@](COCCO)(C[C@@H](Cc1ccc(-c2cccc(Cl)c2)cc1)NC(=O)c1c[nH]nn1)C(=O)O` [Example 2L, (2S,4R)-5-(3′-Chlorobiphenyl-4-yl)-2-(2-hydroxyethoxymethyl)-2-methyl-4-[(1H-[1,2,3]triazole-4-carbonyl)amino]pentanoic Acid], which Ki is on record?
**A.** Its Ki is no more than 1 nM.

**Q.** With `C[C@@](COCCCO)(C[C@@H](Cc1ccc(-c2cccc(Cl)c2)cc1)NC(=O)c1c[nH]nn1)C(=O)O` [Example 2M, (2S,4R)-5-(3′-Chlorobiphenyl-4-yl)-2-(3-hydroxypropoxymethyl)-2-methyl-4-[(1H-[1,2,3]triazole-4-carbonyl)amino]pentanoic Acid] as the molecule, how does the Ki read?
**A.** The Ki was no more than 1 nM.

**Q.** How did the Ki turn out when `COC[C@](C)(C[C@@H](Cc1ccc(-c2cc(Cl)ccc2F)cc1)NC(=O)c1c[nH]nn1)C(=O)O` [Example 2N, (2S,4R)-5-(5′-Chloro-2′-fluorobiphenyl-4-yl)-2-methoxymethyl-2-methyl-4-[(1H-[1,2,3]triazole-4-carbonyl)amino]pentanoic Acid] was run?
**A.** Its Ki is no more than 1 nM.

**Q.** How did the Ki turn out when `CCOC[C@](C)(C[C@@H](Cc1ccc(-c2cc(Cl)ccc2F)cc1)NC(=O)c1c[nH]nn1)C(=O)O` [Example 2O, (2S,4R)-5-(5′-Chloro-2′-fluoro-biphenyl-4-yl)-2-ethoxymethyl-2-methyl-4-[(1H-[1,2,3]triazole-4-carbonyl)amino]pentanoic Acid] was run?
**A.** Its Ki is no more than 1 nM.

**Q.** `C[C@@](COCCCO)(C[C@@H](Cc1ccc(-c2cc(Cl)ccc2F)cc1)NC(=O)c1cnn[nH]1)C(=O)O` [Example 2P, (2S,4R)-5-(5′-Chloro-2′-fluorobiphenyl-4-yl)-2-(3-hydroxypropoxymethyl)-2-methyl-4-[(3H-[1,2,3]triazole-4-carbonyl)amino]pentanoic Acid] was tested. Which Ki did it give?
**A.** Its Ki is no more than 1 nM.

**Q.** For `CCCCCOC[C@](C)(C[C@@H](Cc1ccc(-c2cc(Cl)ccc2F)cc1)NC(=O)c1cnn[nH]1)C(=O)O` [Example 2Q, (2S,4R)-5-(5′-Chloro-2′-fluorobiphenyl-4-yl)-2-methyl-2-pentyloxymethyl-4-[(3H-[1,2,3]triazole-4-carbonyl)amino]pentanoic Acid], which Ki is on record?
**A.** The Ki was 1 to 3.16 nM.

**Q.** Which Ki does the source give for `CC(C)OC[C@](C)(C[C@@H](Cc1ccc(-c2cc(Cl)ccc2F)cc1)NC(=O)c1cnn[nH]1)C(=O)O` [Example 2R, (2S,4R)-5-(5′-Chloro-2′-fluorobiphenyl-4-yl)-2-isopropoxymethyl-2-methvl-4-[(3H-[1,2,3]triazole-4-carbonyl)amino]pentanoic Acid] here?
**A.** The Ki was no more than 1 nM.

**Q.** Which Ki does the source give for `C[C@@](COCCO)(C[C@@H](Cc1ccc(-c2cc(Cl)ccc2F)cc1)NC(=O)c1cnn[nH]1)C(=O)O` [Example 2S, (2S,4R)-5-(5′-Chloro-2′-fluorobiphenyl-4-yl)-2-(2-hydroxyethoxymethyl)-2-methyl-4-[(3H-[1,2,3]triazole-4-carbonyl)amino]pentanoic Acid] here?
**A.** Its Ki is 3.16 to 10 nM.

**Q.** For `COn1cc(C(=O)N[C@H](Cc2ccc(-c3cc(Cl)ccc3F)cc2)C[C@@](C)(CO)C(=O)O)nn1` [Example 4B, (2S,4R)-5-(5′-Chloro-2′-fluorobiphenyl-4-yl)-2-hydroxymethyl-4-[(1-methoxy-1H-[1.2.3]triazole-4-carbonyl)amino]-2-methylpentanoic Acid], which Ki is on record?
**A.** Its Ki is no more than 1 nM.

**Q.** `CCOn1cc(C(=O)N[C@H](Cc2ccc(-c3cc(Cl)ccc3F)cc2)C[C@@](C)(CO)C(=O)O)nn1` [Example 4C, (2S,4R)-5-(5′-Chloro-2′-fluorobiphenyl-4-yl)-4-[(1-ethoxy-1H-[1,2,3]triazole-4-carbonyl)-amino]-2-hydroxymethyl-2-methylpentanoic Acid] was tested. Which Ki did it give?
**A.** Its Ki is no more than 1 nM.
